{
  "source": "paper PMC9448861",
  "about": "(Frontiers in Pharmacology, 2022)",
  "type_in_all_cases": "in vivo, C57BL/6J mice",
  "key": {"[1]": {"assay": "Pharmacokinetics of ketamine and its metabolite hydroxynorketamine in mouse serum, hippocampus and frontal cortex (noncompartmental analysis, LC-MS/MS)", "conditions": "for AUC0-∞ / Cmax / MRT / t0.5λz / tmax / λz: ketamine 10 mg/kg i.p."}, "[2]": {"system": "mice subjected to CRS and CRS + ZnD", "assay": "Sucrose preference test (SPT) in mice subjected to CRS or CRS + ZnD", "method": "(§1) All the compounds/drugs used in the study were obtained commercially, except for hyperforin (sodium salt), which was received as a gift from Dr. Wilmar Schwabe GmbH and Co (Karlsruhe, Germany). […] The control group received only 0.9% NaCl.\n(§2) One week after acclimation, the mice were subjected to either a zinc-adequate feed (ZnA, 50 mg/kg) or zinc-deficient/low-Zn feed (ZnD, 3 mg/kg). Beginning from the second week, some ZnD mice were additionally subjected to 3 weeks of CRS. At the beginning of the 5th week, the mice were subjected to their appropriate treatment schedules or behavioral tests (see schemes in the figures).\n(§3) CRS was performed in accordance with the procedures of [Ding et al. (2016]) with modifications. Mice from the stress groups were restrained in well-ventilated tubes with caps and holes for breathing (in a separate room from the control groups) for 3 h/day over 3 weeks. After each restraint period, the mice were transferred to housing cages. The control mice were housed at 6 mice per cage in an enriched environment and were handled every third day.\nSeven days before the tests, the control and stressed mice were singly housed. The tests were carried out as follows. Two bottles (water and 1% sucrose solution) were placed in each cage 63 h before the test. Twenty-four hours later, the bottles were switched from right to left. Fifteen hours before the tests, the animals were deprived of food, water, and sucrose. The tests lasted 2 h, and sucrose preference was calculated as a percentage of the volume of sucrose intake over the total volume of fluid intake (water and sucrose solution). The SPT was performed during the light phase."}, "[3]": {"system": "Zn levels in the Hp and FC", "assay": "Analysis of zinc (F-AAS) in the Hp and FC", "conditions": "CRS + ZnD mice; three doses", "method": "as §1\nThe samples were mineralized before the experiments. Briefly, three independent test portions of 0.5 g each were weighed from each sample and transferred to Teflon vessels. Then, 2 mL of 30% H2O2 and 6 mL of 65% HNO3 (V) were added, and the mixture was subjected to wet mineralization in a closed system in a Magnum II mineralizer (ERTEC). Mineralization was carried out for 75 min with three cycles of magnetron operation, where the first 30 min was at 60% power, next 15 min was at 80% power, and the remaining 30 min was at 100% power. The mineralized solution thus obtained was heated on a hot plate at 120 °C for 60 min to remove the excess reagents. The samples were then quantitatively transferred to 10 mL flasks and used to determine the zinc content via the F–AAS method (adsorption and emission technique). An atomic absorption spectrometer (iCE 3500, Thermo Scientific, UK) was used to measure the Zn content; each sample was analyzed independently thrice, and the obtained results are presented as mean value ± standard error of mean (SEM)."}, "[4]": {"system": "mice subjected to CRS and CRS + ZnD", "assay": "Tail suspension test (TST) in mice subjected to CRS or CRS + ZnD", "conditions": "three doses, 72 h after the last treatment", "method": "as §1, §2, §3\nThe TST was performed as described in a previous work ([Pochwat et al., 2018]). Briefly, each mouse was suspended individually by the tail using adhesive tape (2 cm from the tail tip) affixed to a solid flat surface, and immobility times were measured for 6 min. […]"}},
  "data": [
    {"compound": "N[C@@]1(c2ccccc2Cl)CCC[C@@H](O)C1=O", "note": "[Hydroxynorketamine, (2R,6R;2S,6S)-hydroxynorketamine]", "values": [
      {"measurement": "AUC0-∞", "setting": "[1]; frontal cortex, CRS + ZnD mice", "result": 148.57, "unit": "µg·min/g"},
      {"measurement": "Cmax", "setting": "[1]; frontal cortex, CRS + ZnD mice", "result": 1838.33, "unit": "ng/g"},
      {"measurement": "MRT", "setting": "[1]; frontal cortex, CRS + ZnD mice", "result": 68.20, "unit": "min"},
      {"measurement": "t0.5λz", "setting": "[1]; frontal cortex, CRS + ZnD mice", "result": 52.49, "unit": "min"},
      {"measurement": "tmax", "setting": "[1]; frontal cortex, CRS + ZnD mice", "result": 10, "unit": "min"},
      {"measurement": "λz", "setting": "[1]; frontal cortex, CRS + ZnD mice", "result": 0.013, "unit": "min⁻¹"},
      {"measurement": "AUC0-∞", "setting": "[1]; frontal cortex, CRS mice", "result": 154.18, "unit": "µg·min/g"},
      {"measurement": "Cmax", "setting": "[1]; frontal cortex, CRS mice", "result": 2020.00, "unit": "ng/g"},
      {"measurement": "MRT", "setting": "[1]; frontal cortex, CRS mice", "result": 72.72, "unit": "min"},
      {"measurement": "t0.5λz", "setting": "[1]; frontal cortex, CRS mice", "result": 59.38, "unit": "min"},
      {"measurement": "tmax", "setting": "[1]; frontal cortex, CRS mice", "result": 10, "unit": "min"},
      {"measurement": "λz", "setting": "[1]; frontal cortex, CRS mice", "result": 0.012, "unit": "min⁻¹"},
      {"measurement": "AUC0-∞", "setting": "[1]; frontal cortex, Control mice", "result": 171.66, "unit": "µg·min/g"},
      {"measurement": "Cmax", "setting": "[1]; frontal cortex, Control mice", "result": 1920.83, "unit": "ng/g"},
      {"measurement": "MRT", "setting": "[1]; frontal cortex, Control mice", "result": 74.68, "unit": "min"},
      {"measurement": "t0.5λz", "setting": "[1]; frontal cortex, Control mice", "result": 50.01, "unit": "min"},
      {"measurement": "tmax", "setting": "[1]; frontal cortex, Control mice", "result": 10, "unit": "min"},
      {"measurement": "λz", "setting": "[1]; frontal cortex, Control mice", "result": 0.014, "unit": "min⁻¹"},
      {"measurement": "AUC0-∞", "setting": "[1]; hippocampus, CRS + ZnD mice", "result": 114.29, "unit": "µg·min/g"},
      {"measurement": "Cmax", "setting": "[1]; hippocampus, CRS + ZnD mice", "result": 1540.00, "unit": "ng/g"},
      {"measurement": "MRT", "setting": "[1]; hippocampus, CRS + ZnD mice", "result": 70.35, "unit": "min"},
      {"measurement": "t0.5λz", "setting": "[1]; hippocampus, CRS + ZnD mice", "result": 54.06, "unit": "min"},
      {"measurement": "tmax", "setting": "[1]; hippocampus, CRS + ZnD mice", "result": 10, "unit": "min"},
      {"measurement": "λz", "setting": "[1]; hippocampus, CRS + ZnD mice", "result": 0.013, "unit": "min⁻¹"},
      {"measurement": "AUC0-∞", "setting": "[1]; hippocampus, CRS mice", "result": 121.64, "unit": "µg·min/g"},
      {"measurement": "Cmax", "setting": "[1]; hippocampus, CRS mice", "result": 1536.83, "unit": "ng/g"},
      {"measurement": "MRT", "setting": "[1]; hippocampus, CRS mice", "result": 72.78, "unit": "min"},
      {"measurement": "t0.5λz", "setting": "[1]; hippocampus, CRS mice", "result": 54.52, "unit": "min"},
      {"measurement": "tmax", "setting": "[1]; hippocampus, CRS mice", "result": 10, "unit": "min"},
      {"measurement": "λz", "setting": "[1]; hippocampus, CRS mice", "result": 0.013, "unit": "min⁻¹"},
      {"measurement": "AUC0-∞", "setting": "[1]; hippocampus, Control mice", "result": 137.36, "unit": "µg·min/g"},
      {"measurement": "Cmax", "setting": "[1]; hippocampus, Control mice", "result": 1591.33, "unit": "ng/g"},
      {"measurement": "MRT", "setting": "[1]; hippocampus, Control mice", "result": 80.93, "unit": "min"},
      {"measurement": "t0.5λz", "setting": "[1]; hippocampus, Control mice", "result": 58.88, "unit": "min"},
      {"measurement": "tmax", "setting": "[1]; hippocampus, Control mice", "result": 10, "unit": "min"},
      {"measurement": "λz", "setting": "[1]; hippocampus, Control mice", "result": 0.012, "unit": "min⁻¹"},
      {"measurement": "tissue-to-serum ratios for the metabolite as share of the values observed for the parent compound", "setting": "[1]; in the FC", "result": "about 80%"},
      {"measurement": "tissue-to-serum ratios for the metabolite as share of the values observed for the parent compound", "setting": "[1]; in the serum and Hp", "result": "about 40%"},
      {"measurement": "Cmax", "setting": "[1]; serum, CRS + ZnD mice", "result": 1726.00, "unit": "ng/mL"},
      {"measurement": "MRT", "setting": "[1]; serum, CRS + ZnD mice", "result": 73.20, "unit": "min"},
      {"measurement": "t0.5λz", "setting": "[1]; serum, CRS + ZnD mice", "result": 56.28, "unit": "min"},
      {"measurement": "tmax", "setting": "[1]; serum, CRS + ZnD mice", "result": 10, "unit": "min"},
      {"measurement": "λz", "setting": "[1]; serum, CRS + ZnD mice", "result": 0.013, "unit": "min⁻¹"},
      {"measurement": "Cmax", "setting": "[1]; serum, CRS mice", "result": 1269.00, "unit": "ng/mL"},
      {"measurement": "MRT", "setting": "[1]; serum, CRS mice", "result": 81.05, "unit": "min"},
      {"measurement": "t0.5λz", "setting": "[1]; serum, CRS mice", "result": 59.11, "unit": "min"},
      {"measurement": "tmax", "setting": "[1]; serum, CRS mice", "result": 10, "unit": "min"},
      {"measurement": "λz", "setting": "[1]; serum, CRS mice", "result": 0.012, "unit": "min⁻¹"},
      {"measurement": "Cmax", "setting": "[1]; serum, Control mice", "result": 1152.71, "unit": "ng/mL"},
      {"measurement": "MRT", "setting": "[1]; serum, Control mice", "result": 87.69, "unit": "min"},
      {"measurement": "t0.5λz", "setting": "[1]; serum, Control mice", "result": 62.33, "unit": "min"},
      {"measurement": "tmax", "setting": "[1]; serum, Control mice", "result": 60, "unit": "min"},
      {"measurement": "λz", "setting": "[1]; serum, Control mice", "result": 0.011, "unit": "min⁻¹"},
      {"measurement": "metabolite-to-parent Cmax ratio", "setting": "[1]; serum, control and study groups", "result": "~1"}
    ]},
    {"compound": "CN(C)CCCN1c2ccccc2CCc2ccccc21", "note": "[IMI, imipramine]", "values": [
      {"measurement": "sucrose preference in the SPT", "setting": "[2]; CRS + ZnD mice, 10 mg/kg chronically (14 days), SPT 24 h after the last treatment", "result": "the same was not observed"},
      {"measurement": "sucrose preference in the SPT", "setting": "[2]; CRS mice, 10 mg/kg chronically (14 days), SPT 24 h after the last treatment", "result": "restored sucrose preference"}
    ]},
    {"compound": "C[C@@H](CN1CCC(Cc2ccccc2)CC1)[C@@H](O)c1ccc(O)cc1", "note": "[Ro, Ro 25–6981]", "values": [
      {"measurement": "sucrose preference in the SPT", "setting": "[2]; CRS + ZnD mice, three doses (ketamine 10 mg/kg, Ro 10 mg/kg, Hyp 2.5 mg/kg + Lan 10 mg/kg), 24 h after the last treatment", "result": "failed to restore sucrose preference"},
      {"measurement": "sucrose preference in the SPT", "setting": "[2]; CRS mice, three doses (ketamine 10 mg/kg, Ro 10 mg/kg, Hyp 2.5 mg/kg + Lan 10 mg/kg), 24 h after the last treatment", "result": "did not show any statistically significant antidepressant-like activities"},
      {"measurement": "Zn levels in the Hp and FC", "setting": "[3]", "result": "reduced the Zn levels"},
      {"measurement": "immobility time in the TST", "setting": "[4]", "result": "ineffective"}
    ]}
  ]
}
